In the NIST ThermoML archive (doi:10.1016/j.jct.2015.02.011):
Numbers after ± are expanded uncertainties.

Experiment: xn = mol fraction of the nth substance listed
Details: 100.7 kPa, Liquid; for speed of sound: Frequency=3 MHz, Sing-around technique in a fixed-path interferometer; for mass density: Vibrating tube method

CCCCCCn1cc[n+](C)c1.F[P-](F)(F)(F)(F)F [1-hexyl-3-methylimidazolium hexafluorophosphate] + C1CCOC1
Details | mass density [kg/m3] | speed of sound [m/s]
293.15 K, x1 = 0.1036 | 1001.33 ± 1.6 | 1328.7 ± 2.3
293.15 K, x1 = 0.2002 | 1074.85 ± 1.6 | 1349.2 ± 2.3
293.15 K, x1 = 0.2868 | 1123.69 ± 1.6 | 1366.6 ± 2.4
293.15 K, x1 = 0.4134 | 1175.92 ± 1.7 | 1385.4 ± 2.5
293.15 K, x1 = 0.5222 | 1209.22 ± 1.7 | 1398.2 ± 2.5
293.15 K, x1 = 0.6239 | 1233.91 ± 1.8 | 1408.8 ± 2.6
293.15 K, x1 = 0.6951 | 1248.83 ± 1.8 | 1414.7 ± 2.7
293.15 K, x1 = 0.7978 | 1267.15 ± 1.9 | 1423.7 ± 2.7
293.15 K, x1 = 0.8953 | 1282.62 ± 2 | 1430.4 ± 2.8
293.15 K, x1 = 1 | 1296.72 ± 2.1 | 1437.7 ± 2.9
298.15 K, x1 = 0.1036 | 996.523 ± 1.6 | 1308.8 ± 2.3
298.15 K, x1 = 0.2002 | 1070.1 ± 1.6 | 1330.9 ± 2.3
298.15 K, x1 = 0.2868 | 1119.03 ± 1.6 | 1348.8 ± 2.4
298.15 K, x1 = 0.4134 | 1171.43 ± 1.7 | 1370 ± 2.5
298.15 K, x1 = 0.5222 | 1204.92 ± 1.7 | 1383.3 ± 2.5
298.15 K, x1 = 0.6239 | 1229.78 ± 1.8 | 1394.6 ± 2.6
298.15 K, x1 = 0.6951 | 1244.72 ± 1.8 | 1400.1 ± 2.7
298.15 K, x1 = 0.7978 | 1263.02 ± 1.9 | 1409.8 ± 2.7
298.15 K, x1 = 0.8953 | 1278.55 ± 2 | 1417.1 ± 2.8
298.15 K, x1 = 1 | 1292.62 ± 2.1 | 1424.3 ± 2.9
303.15 K, x1 = 0.1036 | 991.33 ± 1.6 | 1287.5 ± 2.3
303.15 K, x1 = 0.2002 | 1065.16 ± 1.6 | 1311.7 ± 2.3
303.15 K, x1 = 0.2868 | 1114.11 ± 1.6 | 1331.2 ± 2.4
303.15 K, x1 = 0.4134 | 1166.92 ± 1.7 | 1352.9 ± 2.5
303.15 K, x1 = 0.5222 | 1200.49 ± 1.7 | 1367.7 ± 2.5
303.15 K, x1 = 0.6239 | 1225.49 ± 1.8 | 1379.7 ± 2.6
303.15 K, x1 = 0.6951 | 1240.35 ± 1.8 | 1386.4 ± 2.6
303.15 K, x1 = 0.7978 | 1258.87 ± 1.9 | 1395.8 ± 2.7
303.15 K, x1 = 0.8953 | 1274.54 ± 2 | 1403.8 ± 2.8
303.15 K, x1 = 1 | 1288.61 ± 2.1 | 1411.5 ± 2.9
308.15 K, x1 = 0.1036 | 986.423 ± 1.6 | 1267.3 ± 2.3
308.15 K, x1 = 0.2002 | 1060.21 ± 1.6 | 1293.6 ± 2.3
308.15 K, x1 = 0.2868 | 1109.47 ± 1.6 | 1314.3 ± 2.4
308.15 K, x1 = 0.4134 | 1162.51 ± 1.7 | 1338.2 ± 2.5
308.15 K, x1 = 0.5222 | 1196.52 ± 1.7 | 1353.7 ± 2.5
308.15 K, x1 = 0.6239 | 1221.41 ± 1.8 | 1365.4 ± 2.6
308.15 K, x1 = 0.6951 | 1236.28 ± 1.8 | 1372.3 ± 2.6
308.15 K, x1 = 0.7978 | 1255.02 ± 1.9 | 1382.1 ± 2.7
308.15 K, x1 = 0.8953 | 1270.73 ± 2 | 1390.9 ± 2.8
308.15 K, x1 = 1 | 1284.72 ± 2.1 | 1399 ± 2.9
313.15 K, x1 = 0.1036 | 981.583 ± 1.6 | 1247 ± 2.3
313.15 K, x1 = 0.2002 | 1055.56 ± 1.6 | 1275.7 ± 2.3
313.15 K, x1 = 0.2868 | 1105.02 ± 1.6 | 1298 ± 2.4
313.15 K, x1 = 0.4134 | 1158.19 ± 1.7 | 1322.6 ± 2.5
313.15 K, x1 = 0.5222 | 1192.16 ± 1.7 | 1339.2 ± 2.5
313.15 K, x1 = 0.6239 | 1217.23 ± 1.8 | 1351.9 ± 2.6
313.15 K, x1 = 0.6951 | 1232.35 ± 1.8 | 1358.4 ± 2.6
313.15 K, x1 = 0.7978 | 1251.08 ± 1.9 | 1369.7 ± 2.7
313.15 K, x1 = 0.8953 | 1266.85 ± 2 | 1379.6 ± 2.8
313.15 K, x1 = 1 | 1280.82 ± 2.1 | 1386.9 ± 2.9
318.15 K, x1 = 0.1036 | 976.176 ± 1.6 | 1226.8 ± 2.3
318.15 K, x1 = 0.2002 | 1050.65 ± 1.6 | 1257.8 ± 2.3
318.15 K, x1 = 0.2868 | 1100.21 ± 1.6 | 1281.7 ± 2.4
318.15 K, x1 = 0.4134 | 1153.59 ± 1.7 | 1307.3 ± 2.5
318.15 K, x1 = 0.5222 | 1187.55 ± 1.7 | 1324.1 ± 2.5
318.15 K, x1 = 0.6239 | 1212.63 ± 1.8 | 1337.8 ± 2.6
318.15 K, x1 = 0.6951 | 1227.99 ± 1.8 | 1345.7 ± 2.6
318.15 K, x1 = 0.7978 | 1246.87 ± 1.9 | 1357.4 ± 2.7
318.15 K, x1 = 0.8953 | 1262.74 ± 2 | 1367.7 ± 2.8
318.15 K, x1 = 1 | 1276.37 ± 2.1 | 1375 ± 2.9
323.15 K, x1 = 0.1036 | 971.026 ± 1.7 | 1207.5 ± 2.3
323.15 K, x1 = 0.2002 | 1045.83 ± 1.6 | 1240.6 ± 2.3
323.15 K, x1 = 0.2868 | 1095.6 ± 1.6 | 1265.7 ± 2.4
323.15 K, x1 = 0.4134 | 1148.94 ± 1.7 | 1291.2 ± 2.5
323.15 K, x1 = 0.5222 | 1183.5 ± 1.7 | 1309.2 ± 2.5
323.15 K, x1 = 0.6239 | 1208.58 ± 1.8 | 1323.8 ± 2.6
323.15 K, x1 = 0.6951 | 1224.2 ± 1.8 | 1332.8 ± 2.6
323.15 K, x1 = 0.7978 | 1243.02 ± 1.9 | 1345.3 ± 2.7
323.15 K, x1 = 0.8953 | 1258.69 ± 2 | 1355.6 ± 2.8
323.15 K, x1 = 1 | 1272.45 ± 2.1 | 1363.3 ± 2.9
